In paper PMC11825922, “Molecular interactions, structural effects, and binding affinities between silver ions (Ag^+) and amyloid beta (Aβ) peptides” (Scientific Reports, 2025):
Where two headings read alike, the source gives them in different places.

Tests used:
Aβ peptides = conditions: cited from earlier work
wt Aβ40 peptide = target: T1, wt Aβ40 peptide (Homo sapiens, UniProt P05067); assay: Tyr10 intrinsic fluorescence quenching titration with AgNO3, Morrison equation fit; format: binding; conditions: 20 mM MES buffer, 20 °C, read-out: Mean KD^App value
T1 construct: Aβ(1–40) and Aβ(1–42), here abbreviated Aβ40 and Aβ42; purchased AlexoTech AB (Umeå, Sweden)
Description: A Jobin Yvon Horiba Fluorolog 3 fluorescence spectrophotometer (Longjumeau, France) was used to record the fluorescence emission intensity at 305 nm (excitation wavelength 276 nm) for samples of 10 µM Aβ peptide in 20 mM MES buffer, using a quartz cuvette with 4 mm path length at 20 °C. Measurements were carried out at pH 7.2 for different Aβ variants, i.e. Aβ40, Aβ40(NoHis) mutant, Aβ40(H6A) mutant, and Aβ(4–40). For Aβ40, measurements were carried out also at pH 5.3, and at pH 7.2 in the presence of 50 mM SDS detergent. AgNO3 was titrated to the samples using stock solutions of 1 mM, 2 mM, and 10 mM. The measured tyrosine fluorescence intensities were plotted against the concentration of Ag^+ ions, and dissociation constants were evaluated by fitting the data curves to Eq. (1), i.e. the Morrison Equation [94]:1 I=I0+I∞-I0/2·Aβ·KD+Ag+Aβ-KD+Ag+Aβ^2-4·Ag·Aβ
Here, I0 is the initial fluorescence intensity with no added Ag^+ ions, I∞ is the steady-state intensity at the end of the titration, [Ag] is the concentration of added Ag^+ ions, KD is the dissociation constant, and [Aβ] is the concentration of Aβ peptide. […] Adding a linear term for the fluorescence quenching effect of free Ag^+ ions was considered unnecessary. […]
It is previously known that Ag^+ ions can quench the intrinsic fluorescence of amino acids such as tyrosines, including the Tyr10 residue in Aβ peptides. […]

Aβ40 peptide = target: T2, Aβ40 peptide (Homo sapiens, UniProt P05067); assay: CD spectroscopy on Aβ secondary structure; conditions: 10 µM Aβ40, 20 mM phosphate buffer pH 7.3, 16–256 µM AgNO3, 20 °C
T2 construct: Aβ(1–40) and Aβ(1–42), here abbreviated Aβ40 and Aβ42; purchased AlexoTech AB (Umeå, Sweden)
Description: Circular dichroism (CD) spectroscopy was performed with a Chirascan CD instrument (Applied Photophysics Ltd., U.K.) using a quartz cuvette with 2 mm pathlength containing 600 µL of 10 µM Aβ40 peptide in 20 mM phosphate buffer, pH 7.3. CD spectra were recorded at 20 °C between 190 and 260 nm, with 0.5 nm step size. One sample contained only Aβ40 in buffer, while another sample contained also 50 mM SDS detergent, in order to mimic a membrane environment. To both samples, AgNO3 was added in steps of 16 µM, 56 µM, and 256 µM. The Chirascan Pro-Data v.4.4.1 software (Applied Photophysics Ltd., U.K.) was used to process the recorded spectra with an eight points smoothing filter (Savitzky-Golay).
Figure 3 CD spectra of 10 μM Aβ40 peptide in 20 mM phosphate buffer, pH 7.3. AgNO3 was titrated to the peptide, either in (A): buffer only, or (B): with 50 mM SDS present. Black: Aβ40 in buffer. Orange: + 50 mM SDS (in B only). Red: + 16 µM AgNO3. Green: + 56 µM AgNO3. Blue: + 256 µM AgNO3.

Aβ42 oligomers [1] = target: T3, Aβ42 oligomers (Homo sapiens, UniProt P05067); assay: FTIR spectroscopy of SDS-stabilized Aβ42 oligomers; conditions: 0–500 µM AgNO3; FTIR with BN-PAGE
T3 construct: Synthetic lyophilized wildtype (wt) Aβ(1–42) peptide, abbreviated Aβ42; purchased JPT Peptide Technologies GmbH (Germany); host or cells: chemical synthesis
Description: (§1) The Aβ42 monomers were then used to prepare SDS-stabilized Aβ42 oligomers of approximately tetrameric size, using a previously published protocol[83] with the following modifications: the oligomers were prepared in D2O, at four-fold lower peptide concentration, and without the original dilution step[85]. The reaction mixture (100–120 μM Aβ42 in D2O-based PBS, containing 0.2% (6.9 mM) SDS) was incubated at 37 °C for 24 h together with either 0, 10, 100, or 500 µM AgNO3, respectively, and then flash-frozen in liquid N2 and stored at –20 °C for later analysis.
Fourier-transform infrared (FTIR) spectra of SDS-stabilized Aβ42 oligomers (prepared as described in Section “Preparation of Aβ42 oligomers” with 0–500 µM AgNO3) were recorded in transmission mode on a Tensor 37 FTIR spectrometer (Bruker Optik GmbH., Germany) equipped with a […] and a liquid nitrogen-cooled MCT detector. The unit was continuously purged with dry air during the measurements. […] The sample shuttle allowed sample and reference spectra to be recorded without opening the chamber. FTIR spectra were recorded at room temperature in the 1900–800 cm^–1 range, using 6 mm aperture, 2 cm^–1 resolution, a zero-filling factor of two, and 300 scans for both background and sample spectra. […] All spectra were analyzed and plotted using the OPUS 5.5 software. Second derivatives were calculated with a 17 cm^–1 smoothing factor. […]

Aβ42 oligomers [2] = target: T3, Aβ42 oligomers; assay: BN-PAGE analysis of SDS-stabilized Aβ42 oligomers; conditions: 10, 100, 500 µM AgNO3, 100–120 µM Aβ42, 0.2% SDS, 37 °C 24 h
Description: as §1
Homogeneous solutions of SDS-stabilized Aβ42 oligomers, prepared as described in Section “Preparation of Aβ42 oligomers” with either 0, 10, 100, or 500 µM silver nitrate, were analyzed with BN-PAGE using the Invitrogen system (ThermoFisher Scientific, USA). For this purpose, 4–16% Bis–Tris Novex gels (ThermoFisher Scientific, USA) were loaded with 10 μL of samples containing either Aβ42 monomers or Aβ42 oligomers with increasing concentrations of silver, calibrated against the Amersham High Molecular Weight calibration kit for native electrophoresis (GE Healthcare, USA). The gel was first run at 4 °C for 90 min and then stained with the Pierce Silver Staining kit according to the manufacturer’s instructions (ThermoFisher Scientific, USA). […]

Aβ40 peptide fibrils = target: T4, Aβ40 peptide fibrils (Homo sapiens, UniProt P05067); assay: AFM imaging of Aβ40 aggregates after 72 h incubation; conditions: 30 µM AgNO3, 10 µM Aβ40, 72 h, 37 °C, 5 mM MES pH 7.3
T4 construct: Aβ(1–40) and Aβ(1–42), here abbreviated Aβ40 and Aβ42; purchased AlexoTech AB (Umeå, Sweden)
Description: Samples for AFM imaging were produced by incubating 10 µM Aβ40 peptides in 5 mM MES buffer, pH 7.3, for 72 h at 37 °C with continuous shaking at 350 rpm together with different amounts of AgNO3, i.e. 0 µM; 2.5 µM; 5 µM; and 30 µM (corresponding to Ag^+:Aβ ratios of 0:1; 1:4; 1:2; and 3:1, respectively). The incubated samples were placed as 1 µL droplets on fresh silicon wafers (Siegert Wafer GmbH, Germany). After 2 min, 10 µL of Milli-Q water was added to the droplets, and then a lint-free wipe was used to remove all excess fluid. Next, the wafers were left to air-dry in a container, covered to protect from dust, and later the same day AFM images were recorded. A neaSNOM AFM unit (Neaspec GmbH, Germany) was used, running in tapping mode (Ω: 280 kHz, tapping amplitude 50–55 nm) and equipped with Pt/Ir-coated monolithic ARROW-NCPt Si tips (NanoAndMore GmbH, Germany) where the tip radius was less than 10 nm. Both topographic and mechanical phase images were recorded for 2.5 × 2.5 µm scanning areas (pixel size 200 × 200) with a scan speed of 2.5 ms/pixel. The images were minimally processed to perform basic plane levelling using the Gwyddion software.
Figure 4 AFM images for 10 µM Aβ40 peptides together with different concentrations of AgNO3, incubated with agitation for 72 h at 37 °C in 5 mM MES buffer, pH 7.3. (A) 0 µM AgNO3; (B) 2.5 µM AgNO3; (C) 5 µM AgNO3; (D) 30 µM AgNO3. […]

T3 sequence (P05067 672-713 limits assumed): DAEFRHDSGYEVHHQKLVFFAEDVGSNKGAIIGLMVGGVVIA
T1 sequence (P05067 672-711 limits assumed): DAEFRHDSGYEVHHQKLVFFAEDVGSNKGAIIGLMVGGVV
T4 sequence (P05067 672-711 limits assumed): as above
T2 sequence (P05067 672-711 limits assumed): as above

In the case of `[Cu+2]` [Cu^2+], the “Binding affinity” value (Aβ peptides) is listed as “sub-micromolar” and the Kd (Aβ peptides; fluorescence measurements, read-out: Binding affinity for the Aβ·Cu^2+ complex, corrected for buffer effects) is listed as roughly 0.001 µM.
For `[Ni+2]` [Ni^2+], the Kd (Aβ peptides; read-out: Binding affinity) is given as 1 to 50 µM.
In the case of `[Zn+2]` [Zn^2+], the Kd (Aβ peptides; read-out: Binding affinity) is listed as 1 to 50 µM.
For monovalent silver ions (Ag^+), the Kd (wt Aβ40 peptide; Aβ40 pH 7.2 + 50 mM SDS) was 25 µM, the Kd (wt Aβ40 peptide; Aβ40 pH 7.2, 10 µM peptide) was 25 µM and the “Effect on Aβ40 secondary structure (CD)” value (Aβ40 peptide) was “slightly increased β-sheet structure”. The “Effect on size, secondary structure, β-sheet planarity and number of strands of Aβ42 oligomers” value (Aβ42 oligomers [1]) was “no significant effect”, the “Average sizes, amounts and size distributions of Aβ42 oligomers versus without silver” value (Aβ42 oligomers [2]) was “approximately the same” and the “Effect on Aβ40 fibril morphology (AFM)” value (Aβ40 peptide fibrils) was “much more tangled together”.
